≈ marks a conversion by molar mass, not a printed value. One block for each compound: values may come before it.
Assays:
Pseudomonas aeruginosa [1] = assay: Antibiofilm activity against Pseudomonas aeruginosa ATCC 27853 assessed as reduction in biofilm biomass at 16 ug/ml relative to control; format: functional; design: scale not given: the % may be the effect or the level left; settings: dose 16 µg/ml
Pseudomonas aeruginosa [2] = assay: Antibacterial activity against Pseudomonas aeruginosa ATCC 15442 assessed as reduction in bacterial cell growth incubated for 18 hrs by two fold serial microdilution method; format: functional
Pseudomonas aeruginosa [3] = assay: Antibiofilm activity against Pseudomonas aeruginosa ATCC 15442 assessed as inhibition of biofilm formation at 16 ug/ml relative to control; format: functional; design: scale not given: the % may be the effect or the level left; settings: dose 16 µg/ml
Pseudomonas aeruginosa [4] = assay: Antibacterial activity against Pseudomonas aeruginosa PAO1 assessed as reduction in bacterial growth by broth microdilution method; format: functional, organism-based
Pseudomonas aeruginosa [5] = assay: Antivirulence activity against Pseudomonas aeruginosa PAO1 assessed as inhibition of rhamnolipid production at 16 ug/ml relative to control; format: functional; design: scale not given: the % may be the effect or the level left; settings: dose 16 µg/ml
Pseudomonas aeruginosa [6] = assay: Antivirulence activity against Pseudomonas aeruginosa PAO1 assessed as inhibition of pyocyanin production at 16 ug/ml relative to control; format: functional; design: scale not given: the % may be the effect or the level left; settings: dose 16 µg/ml
Pseudomonas aeruginosa [7] = assay: Antimicrobial activity against Pseudomonas aeruginosa PAO1 assessed as inhibition of bacterial growth measured for 18 hrs by CLSI-based broth microdilution method; format: functional
Pseudomonas aeruginosa [8] = assay: Antibacterial activity against Pseudomonas aeruginosa ATCC 27853 assessed as bacterial growth inhibition by agar diffusion assay; format: functional
Pseudomonas aeruginosa [9] = assay: Antibacterial activity against Pseudomonas aeruginosa ATCC 27853; format: functional, organism-based
Pseudomonas aeruginosa [10] = assay: Antibiofilm activity against Pseudomonas aeruginosa ATCC 27853 assessed as reduction in biofilm formation at 10 uM relative to control; format: functional; design: scale not given: the % may be the effect or the level left
Pseudomonas aeruginosa [11] = assay: Antibiofilm activity against Pseudomonas aeruginosa PAO1 assessed as inhibition of biofilm formation incubated for 24 hrs by crystal violet staining based assay; format: functional, organism-based; settings: PAO1, 24 h
Pseudomonas aeruginosa [12] = assay: Antibiofilm activity against Pseudomonas aeruginosa assessed as reduction in biofilm formation incubated for 24 hrs relative to control; format: functional; design: scale not given: the % may be the effect or the level left
Pseudomonas aeruginosa [13] = assay: Antimicrobial activity against Pseudomonas aeruginosa assessed as reduction in microbial growth; format: functional, organism-based
Pseudomonas aeruginosa [14] = assay: Downregulation of pqsR mRNA expression in Pseudomonas aeruginosa PAO1; format: functional
Pseudomonas aeruginosa [15] = assay: Antibiofilm activity against Pseudomonas aeruginosa PAO1 assessed as inhibition of biofilm formation at 16 ug/ml incubated for 24 hrs by crystal violet staining based assay relative to control; format: functional; design: scale not given: the % may be the effect or the level left; settings: dose 16 µg/ml
Pseudomonas aeruginosa [16] = assay: Antibacterial activity against Pseudomonas aeruginosa PAO1 by broth microdilution method; format: functional
Pseudomonas aeruginosa [17] = assay: Downregulation of pqsA mRNA expression in Pseudomonas aeruginosa PAO1; format: functional
Pseudomonas aeruginosa [18] = assay: Antivirulence activity in Pseudomonas aeruginosa PAO1 assessed as reduction in elastase production at 10 uM incubated for 24 hrs by elastin-congo red dye based absorbance assay relative to control; format: functional; design: scale not given: the % may be the effect or the level left
Pseudomonas aeruginosa [19] = assay: Antibacterial activity against Pseudomonas aeruginosa PAO1 assessed as reduction in bacterial growth; format: functional
Pseudomonas aeruginosa [20] = assay: Antibiofilm activity against Pseudomonas aeruginosa PAO1 assessed as inhibition of biofilm formation at 16 microg/ml incubated for 20 hrs by crystal violet staining based analysis; format: functional; design: scale not given: the % may be the effect or the level left; settings: dose 16 µg/ml
Pseudomonas aeruginosa [21] = assay: Antivirulence activity against Pseudomonas aeruginosa PAO1 assessed as reduction in pyocyanin production at 20 ug/ml relative to control; format: functional; design: scale not given: the % may be the effect or the level left; settings: dose 20 µg/ml
[22] = Inhibition of quorum sensing system in Pseudomonas aeruginosa PAO1-rhlA-gfp assessed as inhibition of rhlA expression at 50 ug/ml incubated for 8 hrs by microplate reader based analysis relative to control; settings: dose 50.0 µg/ml
[23] = Inhibition of quorum sensing system in Pseudomonas aeruginosa PAO1 expressing lasI-gfp assessed as inhibition of lasI expression at 50 ug/ml incubated for 8 hrs under shaking condition by microplate reader based analysis relative to control; settings: dose 50.0 µg/ml
Pseudomonas aeruginosa [24] = assay: Downregulation of lasB mRNA expression in Pseudomonas aeruginosa PAO1 at 160 ug/ml incubated for 6 hrs by RT-qPCR analysis relative to control; format: functional; settings: dose 160 µg/ml
Pseudomonas aeruginosa [25] = assay: Downregulation of rhlR mRNA expression in Pseudomonas aeruginosa PAO1 at 160 ug/ml incubated for 6 hrs by RT-qPCR analysis relative to control; format: functional; settings: dose 160 µg/ml
Pseudomonas aeruginosa [26] = assay: Downregulation of lasI mRNA expression in Pseudomonas aeruginosa PAO1 at 16 ug/ml relative to control; format: functional; settings: dose 16 µg/ml
Pseudomonas aeruginosa [27] = assay: Antibacterial activity against Pseudomonas aeruginosa PAO1 assessed as bacterial growth inhibition after 24 hrs by liquid microdilution method; format: functional
Pseudomonas aeruginosa [28] = assay: Downregulation of lasA mRNA expression in Pseudomonas aeruginosa PAO1 at 160 ug/ml incubated for 6 hrs by RT-qPCR analysis relative to control; format: functional; settings: dose 160 µg/ml
Pseudomonas aeruginosa [29] = assay: Downregulation of rhlI mRNA expression in Pseudomonas aeruginosa PAO1 at 160 ug/ml incubated for 6 hrs by RT-qPCR analysis relative to control; format: functional; settings: dose 160 µg/ml
Pseudomonas aeruginosa [30] = assay: Antivirulence activity against Pseudomonas aeruginosa PAO1 assessed as inhibition of pyocyanin production at 25 ug/ml incubated for 16 hrs under agitation by photometric analysis relative to control; format: functional; design: scale not given: the % may be the effect or the level left; settings: dose 25 µg/ml
Pseudomonas aeruginosa [31] = assay: Downregulation of lasR mRNA expression in Pseudomonas aeruginosa PAO1 at 16 ug/ml relative to control; format: functional; settings: dose 16 µg/ml
Pseudomonas aeruginosa [32] = assay: Anti-virulence effect in Pseudomonas aeruginosa PAO1 assessed as inhibition of rhamnolipid production at 10 uM relative to control; format: functional; design: scale not given: the % may be the effect or the level left
Pseudomonas aeruginosa [33] = assay: Antibiofilm activity against Pseudomonas aeruginosa ATCC 27853 assessed as inhibition of biofilm formation at 8 microg/ml incubated for 24 hrs by crystal violet staining based analysis relative to control; format: functional; design: scale not given: the % may be the effect or the level left; settings: dose 8 µg/ml
Pseudomonas aeruginosa [34] = assay: Antibiofilm activity against Pseudomonas aeruginosa PA14 assessed as reduction in biofilm formation; format: functional
Pseudomonas aeruginosa [35] = assay: Downregulation of rhlA mRNA level in Pseudomonas aeruginosa PAO1 at 10 uM by RT-qPCR analysis; format: functional
[36] = Inhibition of quorum sensing system in Pseudomonas aeruginosa PAO1 expressing lasB-gfp assessed as inhibition of lasB expression at 50 ug/ml incubated for 8 hrs by microplate reader based analysis relative to control; settings: dose 50.0 µg/ml
Pseudomonas aeruginosa [37] = assay: Antibiofilm activity against Pseudomonas aeruginosa PAO1 assessed as reduction in biofilm formation at 16 ug/ml incubated for 2 to 4 hrs by crystal violet staining based analysis relative to control; format: functional; design: scale not given: the % may be the effect or the level left; settings: dose 16 µg/ml; time 2-4 hrs

SMILES: Cc1ccc(CCOC(=O)/C=C/c2ccc(O)c(O)c2)cc1
Activity (Pseudomonas aeruginosa [1]): 22.67%

MIC (Pseudomonas aeruginosa [2]): > 50 µM
SMILES: O=c1c2c(Cl)cccc2ncn1Cc1ccc(NCc2ccco2)cc1
Activity (Pseudomonas aeruginosa [3]): 26.7%

MIC (Pseudomonas aeruginosa [4]): 5 µM (≈ 2 µg/mL)
SMILES: O=C(COc1ccc(C(=O)/C=C/c2ccccc2Cl)cc1)N[C@H]1CCOC1=O

SMILES: COc1ccc(-c2cc(=O)c3c(O)cc(O)cc3o2)cc1 [ACACETIN]
Activity (Pseudomonas aeruginosa [5]): 67% | Activity (Pseudomonas aeruginosa [6]): 53% | MIC (Pseudomonas aeruginosa [7]): 0.48 µg/mL (≈ 1.69 µM)

MIC (Pseudomonas aeruginosa [8]): > 512 µg/mL | IC50 (Pseudomonas aeruginosa [9]): 115 µg/mL (≈ 335 µM)
SMILES: O=C(CSc1nc2ccccc2s1)c1ccc2c(c1)OCCO2

SMILES: CCCCCCCCSSc1nc2ccccc2c(=O)[nH]1
Activity (Pseudomonas aeruginosa [10]): 46%

IC50 (Pseudomonas aeruginosa [11]): 3.29 µM
SMILES: CCCCCCCn1ccnc1

SMILES: Nc1ccc(S(=O)(=O)Nc2ccc3c(c2)OC2C=C(O)C=C(O)C2C3=O)cc1 (stereo not given)
Activity (Pseudomonas aeruginosa [12]): 50% | IC50 (Pseudomonas aeruginosa [13]): 100 µM

SMILES: C=CCSSc1nc2ccccc2c(=O)[nH]1
Activity (Pseudomonas aeruginosa [10]): 46%

MIC (Pseudomonas aeruginosa [2]): > 50 µM
SMILES: Cc1nc2cccc(Br)c2c(=O)n1/N=C/C=C/c1ccccc1
Activity (Pseudomonas aeruginosa [3]): 58%

MIC (Pseudomonas aeruginosa [8]): > 512 µg/mL | IC50 (Pseudomonas aeruginosa [9]): 182 µg/mL (≈ 578 µM)
SMILES: COc1cccc(C(=O)CSc2nc3ccccc3s2)c1

MIC (Pseudomonas aeruginosa [16]): 500 µM (≈ 214 µg/mL)
SMILES: Cc1nc2ccccc2nc1CSc1nc2ccccc2c(=O)n1-c1ccc(F)cc1
Activity (Pseudomonas aeruginosa [14]): 90% | Activity (Pseudomonas aeruginosa [15]): 46.37% | Activity (Pseudomonas aeruginosa [17]): 90%

SMILES: O=C(CCc1ccc(Br)cc1)NC1CCOC1=O (stereo not given)
Activity (Pseudomonas aeruginosa [18]): 44% | MIC (Pseudomonas aeruginosa [19]): 10 µM (≈ 3.12 µg/mL) | Activity (Pseudomonas aeruginosa [20]): 48% | Activity (Pseudomonas aeruginosa [21]): 19% | inhibition [22]: 80% | inhibition [23]: 87%

SMILES: COc1ccc(/C=C/C(=O)O)cc1OC
Activity (Pseudomonas aeruginosa [1]): 15.79%

SMILES: O=C(O)c1ccccc1O [SALICYLIC ACID]
Activity (Pseudomonas aeruginosa [24]): 22% | IC50 (Pseudomonas aeruginosa [11]): 3.62 µM | Activity (Pseudomonas aeruginosa [25]): 70% | Activity (Pseudomonas aeruginosa [26]): 60% | MIC (Pseudomonas aeruginosa [27]): 11.3 µM (≈ 1.57 µg/mL) | Activity (Pseudomonas aeruginosa [28]): 31% | Activity (Pseudomonas aeruginosa [29]): 82% | Activity (Pseudomonas aeruginosa [30]): 32% | Activity (Pseudomonas aeruginosa [31]): 78%

SMILES: c1cc2c(cc1O[C@H]1OC[C@H]3[C@@H]1CO[C@@H]3c1ccc3c(c1)OCO3)OCO2 [SESAMOLIN]
Activity (Pseudomonas aeruginosa [32]): 42% | Activity (Pseudomonas aeruginosa [6]): 79% | Activity (Pseudomonas aeruginosa [33]): 97% | MIC (Pseudomonas aeruginosa [34]): 150 µg/mL (≈ 405 µM) | Activity (Pseudomonas aeruginosa [28]): 53.95%

MIC (Pseudomonas aeruginosa [7]): 0.48 µg/mL (≈ 1.78 µM)
SMILES: O=c1c(-c2ccc(O)cc2)coc2cc(O)cc(O)c12 [GENISTEIN]

inhibition [36]: 54%
SMILES: COc1cc(C)c(C(=O)Oc2cc(C)c(C(=O)O)c(O)c2)c(O)c1 [EVERNIC ACID]
Activity (Pseudomonas aeruginosa [35]): 50%

SMILES: O=C1c2ccc(NS(=O)(=O)c3ccc(F)cc3)cc2OC2C=C(O)C=C(O)C12 (stereo not given)
Activity (Pseudomonas aeruginosa [12]): 78% | IC50 (Pseudomonas aeruginosa [13]): 100 µM

MIC (Pseudomonas aeruginosa [4]): 5 µM (≈ 2.2 µg/mL)
SMILES: O=C(CNc1ccc(C(=O)/C=C/c2ccc(-c3ccccc3)cc2)cc1)N[C@@H]1CCOC1=O

SMILES: Cc1ccc(CCC(=O)NC2CCOC2=O)cc1 (stereo not given)
Activity (Pseudomonas aeruginosa [18]): 52% | MIC (Pseudomonas aeruginosa [19]): 10 µM (≈ 2.47 µg/mL) | Activity (Pseudomonas aeruginosa [20]): 52% | Activity (Pseudomonas aeruginosa [21]): 66% | inhibition [22]: 91% | inhibition [23]: 82%

SMILES: CC(C)OP(=O)(NCCCCOc1cc(O)c2c(=O)cc(-c3ccccc3)oc2c1)OC(C)C
IC50 (Pseudomonas aeruginosa [13]): 100 µM

SMILES: C=CCc1ccc(O)c(OC)c1 [EUGENOL]
Activity (Pseudomonas aeruginosa [25]): 65% | Activity (Pseudomonas aeruginosa [26]): 52% | Activity (Pseudomonas aeruginosa [31]): 51% | Activity (Pseudomonas aeruginosa [37]): 50%
